From patent publication US8071627B2, “2-pyridinylethylcarboxamide derivatives and their use as fungicides” (Bayer SAS, priority 2003, dated 2011)

Legend:
[1] = test system: Botrytis cinerea; experiment: In vivo test on Botrytis cinerea (cucumber grey mould), cucumber plants, preventive spray; settings: 330 ppm; comparison compounds of WO 01/11965
Experimental: (§1) The active ingredient tested is prepared by potter homogenisation in a concentrated suspension type formulation at 100 g/l. This suspension is then diluted with water to obtain the desired active material concentration.
(§2) Cucumber plants (Marketer variety) in starter cups, sown on a 50/50 peat soil-pozzolana substrate and grown at 18-20° C., are treated at the cotyledon Z11 stage by spraying with the aqueous suspension described above. Plants, used as controls, are treated with an aqueous solution not containing the active material.
After 24 hours, the plants are contaminated by depositing drops of an aqueous suspension of Botrytis cinerea spores (150,000 spores per ml) on upper surface of the leaves. The spores are collected from a 15-day-old culture and are suspended in a nutrient solution-composed of: • 20 g/L of gelatin • 50 g/L of cane sugar • 2 g/L of NH4NO3 • 1 g/L of KH2PO4
The contaminated cucumber plants are settled for 5/7 days in a climatic room at 15-11° C. (day/night) and at 80% relative humidity.
Grading is carried out 5/7 days after the contamination, in comparison with the control plants.

[2] = test system: Peronospora brassicae; experiment: Test on Peronospora brassicae, cabbage plants, preventive spray; type: in vivo; settings: 330 ppm; cabbage plants (Eminence variety); sprayed 24 hours before contamination; grading 5 days after contamination vs control plants
Experimental: as §1
as §2, with “Cabbage” for “Cucumber”, “(Eminence” for “(Marketer”, “cotyledon” for “cotyledon Z11”
After 24 hours, the plants are contaminated by spraying them with an aqueous suspension of Peronospora brassicae spores (50,000 spores per ml). The spores are collected from infected plant
The contaminated cabbage plants are incubated for 5 days at 20° C., under a humid atmosphere.
Grading is carried out 5 days after the contamination, in comparison with the control plants.

[3] = test system: Alternaria brassicae; experiment: In vivo test on Alternaria brassicae (leaf spot of crucifers), radish plants, preventive spray; settings: 330 ppm; comparison compounds of WO 01/11965
Experimental: as §1
Radish plants (Pernot variety) in starter cups, sown on a 50/50 peat soil-pozzolana substrate and grown at 18-20° C., are treated at the cotyledon stage by spraying with the aqueous suspension described above.
Plants, used as controls, are treated with an aqueous solution not containing the active material.
After 24 hours, the plants are contaminated by spraying them with an aqueous suspension of Alternaria brassicae spores (40,000 spores per cm^3). The spores are collected from a 12-13-day-old culture.
The contaminated radish plants are incubated for 6-7 days at about 18° C., under a humid atmosphere.
Grading is carried out 6 to 7 days after the contamination, in comparison with the control plants.

[4] = test system: Peronospora parasitica; experiment: Efficacy against Peronospora parasitica (comparison compound); type: in vivo; settings: 330 ppm; comparison compound of WO 01/11965

Structure (SMILES)	effectiveness on Botrytis cinerea (in words) [1]	protection (good (at least 50%) to total) [2]	effectiveness on Alternaria brassicae (in words) [3]	efficacy against Peronospora parasitica (in words) [4]
CCNC(=O)C(Cc1ncc(C(F)(F)F)cc1Cl)NC(=O)c1ccccc1Br (stereo not shown) [compound 310, N-{1-ethylcarbamoyl-2-[3-chloro-5-(trifluoromethyl)-2-pyridinyl]ethyl}-2-bromobenzamide]	zero effectiveness			
CCNC(=O)C(Cc1ncc(C(F)(F)F)cc1Cl)NC(=O)c1ccc(Cl)cc1 (stereo not shown) [compound 306, N-{1-ethylcarbamoyl-2-[3-chloro-5-(trifluoromethyl)-2-pyridinyl]ethyl}-4-chlorobenzamide]	zero effectiveness			
CNC(=O)C(Cc1ncc(C(F)(F)F)cc1Cl)NC(=O)c1ccccc1 (stereo not shown) [compound 314, N-{1-methylcarbamoyl-2-[3-chloro-5-(trifluoromethyl)-2-pyridinyl]ethyl}-benzamide]	zero effectiveness			
CC1=C(C(=O)NCC(NC(=O)c2c(Cl)cccc2Cl)c2ncc(C(F)(F)F)cc2Cl)SCCO1 (stereo not shown) [Compound 46]		at least 50%		
CCNC(=O)C(Cc1ncc(C(F)(F)F)cc1Cl)NC(=O)c1ccccc1 (stereo not shown) [compound 304, N-{1-ethylcarbamoyl-2-[3-chloro-5-(trifluoromethyl)-2-pyridinyl]-ethyl}-benzamide]	zero effectiveness			
CCNC(=O)C(Cc1ncc(C(F)(F)F)cc1Cl)NC(=O)c1cccc([N+](=O)[O-])c1 (stereo not shown) [compound 307, N-{1-ethylcarbamoyl-2-[3-chloro-5-(trifluoromethyl)-2-pyridinyl]ethyl}-3-nitrobenzamide]	zero effectiveness		poor effectiveness	
O=C(Cc1cccs1)NCc1ncc(C(F)(F)F)cc1Cl [compound 101, N-{[3-chloro-5-(trifluoromethyl)-2-pyridinyl]methyl}-5-thienylacetamide]	no efficacy		poor efficacy	no efficacy
CNC(=O)C(Cc1ncc(C(F)(F)F)cc1Cl)NC(=O)c1ccc(OC)cc1 (stereo not shown) [compound 315, N-{1-methylcarbamoyl-2-[3-chloro-5-(trifluoromethyl)-2-pyridinyl]ethyl}-4-methoxybenzamide]	zero effectiveness			
CNC(=O)C(Cc1ncc(C(F)(F)F)cc1Cl)NC(=O)c1ccc(-c2ccccc2)cc1 (stereo not shown) [compound 316, N-{1-methylcarbamoyl-2-[3-chloro-5-(trifluoromethyl)-2-pyridinyl]-ethyl}-4-phenylbenzamide]	zero effectiveness		poor effectiveness	
